{"source": "patent US20240053326A1", "about": "“TESTING COLON CANCER DRUGS FOR IMMUNOMODULATORY EFFECTS” (BROWN UNIVERSITY, priority 2022, published 2024)", "tested_on": "HCT-116, HT-29, and KM12C colon cancer cell lines", "assay": "Cytokinome (cytokine, chemokine, growth factor) profiling of cell culture supernatant after small-molecule treatment, Luminex 200", "assay_type": "cell-based, human", "conditions": "for decreases in VEGF: 48 h treatment at IC-10 to IC-90, slope of linear regression, count of drug/cell line groups (HCT-116, HT-29, KM12C) with analyte among top five most down-regulated", "experimental": "We designed a high-throughput custom multiplex cytokine, chemokine, and growth factor profiling panel based on both pro- and anti-inflammatory markers, as well as cytokines and chemokines involved in the recruitment and activation of immune cells such as natural killer (NK) and T cells. Cell lines were treated with the drug panel and cell culture supernatants were analyzed using Luminex 200 technology (FIG. 2). Cell lines were treated at differing concentrations (IC-10, IC-30, IC-50, IC-70, and IC-90) to determine dose-response effects for each small-molecule. It is important to emphasize that the panel was designed to analyze soluble factors that are secreted or shed by tumor cells post-treatment with drug.\nCells were plated at 3.5×10^4 cells in a 48 well plate (Thermo Fisher Scientific, Waltham, MA, USA) in complete medium and incubated at 37° C. with 5% CO2. At 24 hours after plating, almost all the tumor cells were adherent to the bottom of the flask and the complete medium was replaced with drug-containing medium. Subsequently, the culture supernatants were collected after 48 hours of incubation and were frozen at −80° C. until the measurement of cytokines was performed. The day of analysis, samples were thawed and centrifuged to remove cellular debris.\nAn R&D systems Human Premixed Multi-Analyte Kit (R&D Systems, Inc., Minneapolis, MN) was run on a Luminex 200 Instrument (LX200-XPON-RUO, Luminex Corporation, Austin, TX) according to the manufacturer's instructions. Cell culture supernatant levels of TNF-alpha, IL-6, IL-8/CXCL8, Ferritin, IFN-beta, IL-10, CCL2/JE/MCP-1, VEGF, CXCL13/BLC/BCA-1, IFN-gamma, CCL20/MIP-3 alpha, CCL3/MIP-1 alpha, CCL22/MDC, CCL4/MIP-1 beta, IL-4, IL-17/IL-17a, TRAIL R2/TNFRSF10B, GM-CSF, CXCL5/ENA-78, CXCL9/MIG, G-CSF, CXCL11/I-TAC, Granzyme B, CCL5/RANTES, Prolactin, IFN-alpha, CXCL14/BRAK, IL-12/IL-23 p40, CXCL10/IP-10/CRG2, CCL7/MCP-3/MARC, IL-7, CCL8/MCP-2, TRANCE/TNFSF11/RANK L, IL-15, TRAIL R3/TNFRSF10C, CCL11/Eotaxin, IL-18/IL-1F4, TRAIL/TNFSF10, IL-21, and C-Reactive Protein/CRP were measured.\nA quantitative analysis with 6 standards and a minimum of 50 counts per bead region was used with the Luminex to generate analyte values reported as picograms/milliliter (pg/mL). Cytokine concentrations less than the lower limit of detection for each particular cytokine were recoded as zero. Cytokines without detectable expression levels were removed from further analysis of each cell line. Each drug was tested at different inhibitory concentrations (IC-10, IC-30, IC-50, IC-70, and IC-90), and these varying concentrations were used to measure a dose-response effect on cytokine expression. Cytokine dose-response effect was modeled by simple linear regression for each drug. The slopes of the linear regressions were compared. Data analysis and visualization were generated using R (R Development Core Team, 2020).", "key": {"[1]": {"conditions": "48 h, IC-10 to IC-90, regression slope, count of drug/cell line groups, top five most down-regulated"}, "[2]": {"conditions": "48 h, IC-10 to IC-90, regression slope, count of drug/cell line groups, top five most up-regulated"}}}
{"smiles": "COc1ccc(CN2C3CC2CN(c2ccc(-c4cc(OCC(C)(C)O)cn5ncc(C#N)c45)cn2)C3)cn1", "note": "[Selpercatinib]", "values": [{"measurement": "decreases in CCL3/MIP-1 alpha", "setting": "[1]", "result": "2 out of 3"}, {"measurement": "decreases in CXCL14/BRAK", "setting": "[1]", "result": "2 out of 3"}, {"measurement": "increases in CXCL5/ENA-78", "setting": "[2]", "result": "3 out of 3"}, {"measurement": "increases in IL-8/CXCL8", "setting": "[2]", "result": "2 out of 3"}, {"measurement": "increases in Prolactin", "setting": "[2]", "result": "2 out of 3"}, {"measurement": "decreases in VEGF", "result": "3 out of 3"}]}
{"smiles": "O=C(Nc1cnn2ccc(N3CCC[C@@H]3c3cc(F)ccc3F)nc12)N1CC[C@H](O)C1", "note": "[Larotrectinib]", "values": [{"measurement": "decreases in CCL3/MIP-1 alpha", "setting": "[1]", "result": "2 out of 3"}, {"measurement": "decreases in CXCL9/MIG", "setting": "[1]", "result": "3 out of 3"}, {"measurement": "decreases in IL-8/CXCL8", "setting": "[1]", "result": "2 out of 3"}, {"measurement": "increases in CCL5/RANTES", "setting": "[2]", "result": "2 out of 3"}, {"measurement": "increases in IL-18/IL-1F4", "setting": "[2]", "result": "2 out of 3"}, {"measurement": "increases in Prolactin", "setting": "[2]", "result": "2 out of 3"}, {"measurement": "decreases in VEGF", "result": "3 out of 3"}]}
{"smiles": "C[C@@H](Oc1cc(-c2cnn(C3CCNCC3)c2)cnc1N)c1c(Cl)ccc(F)c1Cl", "note": "[Crizotinib]", "values": [{"measurement": "decreases in CXCL9/MIG", "setting": "[1]", "result": "2 out of 3"}, {"measurement": "decreases in CXCL13/BLC/BCA-1", "setting": "[1]", "result": "2 out of 3"}, {"measurement": "increases in CXCL14/BRAK", "setting": "[2]", "result": "2 out of 3"}, {"measurement": "increases in IL-8/CXCL8", "setting": "[2]", "result": "2 out of 3"}, {"measurement": "increases in Prolactin", "setting": "[2]", "result": "2 out of 3"}, {"measurement": "decreases in VEGF", "result": "3 out of 3"}]}
{"smiles": "CNC(=O)c1cc(Oc2ccc(NC(=O)Nc3ccc(Cl)c(C(F)(F)F)c3)c(F)c2)ccn1", "note": "[Regorafenib]", "values": [{"measurement": "decreases in CCL3/MIP-1 alpha", "setting": "[1]", "result": "2 out of 3"}, {"measurement": "decreases in CXCL5/ENA-78", "setting": "[1]", "result": "2 out of 3"}, {"measurement": "decreases in CXCL9/MIG", "setting": "[1]", "result": "3 out of 3"}, {"measurement": "decreases in IL-8/CXCL8", "setting": "[1]", "result": "3 out of 3"}, {"measurement": "increases in CXCL14/BRAK", "setting": "[2]", "result": "2 out of 3"}, {"measurement": "increases in Prolactin", "setting": "[2]", "result": "2 out of 3"}, {"measurement": "decreases in VEGF", "result": "3 out of 3"}]}
{"smiles": "Cn1cc(C2=C(c3coc4ccc(F)cc34)C(=O)NC2=O)c2cc3c(cc21)OCO3", "note": "[9-ING-41]", "values": [{"measurement": "decreases in CCL3/MIP-1 alpha", "setting": "[1]", "result": "2 out of 3"}, {"measurement": "decreases in CXCL9/MIG", "setting": "[1]", "result": "3 out of 3"}, {"measurement": "increases in CXCL14/BRAK", "setting": "[2]", "result": "3 out of 3"}, {"measurement": "increases in IL-8/CXCL8", "setting": "[2]", "result": "2 out of 3"}, {"measurement": "increases in sTRAIL-R3", "setting": "[2]", "result": "2 out of 3"}, {"measurement": "decreases in VEGF", "result": "3 out of 3"}]}
